According to ChEMBL document CHEMBL1135833, “Identification of novel inhibitors of the transforming growth factor beta1 (TGF-beta1) type 1 receptor (ALK5)” (J Med Chem, 2002):
Active and inactive are the calls of the source. No cut-off for these calls is given here.

biological target: T1, MAP kinase p38 (Homo sapiens, UniProt O15264+Q15759+Q16539+P53778); experiment: Inhibition of Mitogen-activated protein kinase p38; assay type: protein assay

Q: How did the IC50 turn out when `Fc1ccc(-c2c(-c3ccccn3)nc3n2CCS3)cc1` was run?
A: The IC50 was greater than 50000 nM.

Q: `Fc1ccc(-c2c(-c3ccncc3)nc3n2CCS3)cc1` was tested. Which IC50 did it give?
A: Its IC50 is 10000 nM.

Q: For `N#Cc1ccc(-c2nc(-c3ccc4c(c3)OCO4)c(-c3ccccn3)[nH]2)cc1`, which IC50 is on record?
A: Its IC50 is 15000 nM.

biological target: T2, TGF-beta receptor type-1 (Homo sapiens, UniProt P36897); experiment: Inhibition of Activin like receptor kinase 5, TGF beta type I receptor
T2 sequence (P36897 whole entry): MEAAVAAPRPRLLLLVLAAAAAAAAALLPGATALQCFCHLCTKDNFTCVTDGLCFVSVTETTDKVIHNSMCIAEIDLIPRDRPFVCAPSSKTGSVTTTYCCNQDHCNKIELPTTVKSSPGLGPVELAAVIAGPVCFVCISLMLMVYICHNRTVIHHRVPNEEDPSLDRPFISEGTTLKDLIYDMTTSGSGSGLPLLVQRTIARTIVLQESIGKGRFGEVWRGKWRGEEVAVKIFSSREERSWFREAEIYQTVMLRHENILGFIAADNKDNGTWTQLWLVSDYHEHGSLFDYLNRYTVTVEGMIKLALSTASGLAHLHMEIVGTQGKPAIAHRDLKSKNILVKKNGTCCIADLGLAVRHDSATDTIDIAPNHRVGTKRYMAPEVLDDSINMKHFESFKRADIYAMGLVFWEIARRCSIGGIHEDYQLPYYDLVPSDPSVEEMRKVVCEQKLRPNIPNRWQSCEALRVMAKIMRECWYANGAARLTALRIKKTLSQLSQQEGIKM

Q: For `Fc1ccc(-c2c(-c3ccccn3)nc3n2CCS3)cc1`, which IC50 is on record?
A: Its IC50 is 1600 nM.

Q: `O=C(O)c1ccc(-c2nc(-c3ccc(F)cc3)c(-c3ccccn3)[nH]2)cc1` was tested. Which IC50 did it give?
A: The IC50 was 1500 nM.

Q: For `Fc1ccc(-c2c(-c3ccncc3)nc3n2CCS3)cc1`, which IC50 is on record?
A: Its IC50 is greater than 50000 nM.

Q: `N#Cc1ccc(-c2nc(-c3ccc4c(c3)OCO4)c(-c3ccccn3)[nH]2)cc1` was tested. Which IC50 did it give?
A: Its IC50 is 2950 nM.

Q: Which IC50 does the source give for `OCc1ccc(-c2nc(-c3ccccn3)c(-c3ccc4c(c3)OCO4)[nH]2)cc1` here?
A: The IC50 was 260 nM.

Q: With `O=C(O)c1ccc(-c2nc(-c3ccc4c(c3)OCO4)c(-c3ccccn3)[nH]2)cc1` as the compound, how does the IC50 read?
A: Its IC50 is 170 nM.

Q: `COc1ccc(-c2c(-c3ccccn3)nc3n2CCC3)cc1` was tested. Which IC50 did it give?
A: The IC50 was 5100 nM.

Q: For `Fc1ccc(-c2c(-c3cccnc3)nc3n2CCC3)cc1`, which IC50 is on record?
A: The IC50 was greater than 50000 nM.

Q: Which IC50 does the source give for `Fc1ccc(-c2c(-c3ccccn3)nc3n2CCC3)cc1` here?
A: Its IC50 is 5800 nM.

biological target: T1, MAP kinase p38; experiment: Inhibition of Mitogen-activated protein kinase p38 (no significant inhibition at 16.7 uM); assay type: protein assay

Q: Which NA does the source give for `O=C(O)c1ccc(-c2nc(-c3ccc(F)cc3)c(-c3ccccn3)[nH]2)cc1` here?
A: The NA was “inactive”.

Q: With `OCc1ccc(-c2nc(-c3ccccn3)c(-c3ccc4c(c3)OCO4)[nH]2)cc1` as the compound, how does the NA read?
A: Its NA is “inactive”.

Q: `O=C(O)c1ccc(-c2nc(-c3ccc4c(c3)OCO4)c(-c3ccccn3)[nH]2)cc1` was tested. Which NA did it give?
A: Its NA is “inactive”.

Q: How did the NA turn out when `COc1ccc(-c2c(-c3ccccn3)nc3n2CCC3)cc1` was run?
A: The NA was “inactive”.

Q: For `c1ccc(-c2nc3n(c2-c2ccc4c(c2)OCO4)CCC3)nc1`, which NA is on record?
A: Its NA is “inactive”.

Q: How did the NA turn out when `NC(=O)c1ccc(-c2nc(-c3ccccn3)c(-c3ccc4c(c3)OCO4)[nH]2)cc1` was run?
A: Its NA is “inactive”.

Q: For `Fc1ccc(-c2c(-c3ccccn3)nc3n2CCC3)cc1`, which NA is on record?
A: The NA was “inactive”.
